# Experimental data reported in PMC7995547, “ω‐Imidazolyl‐alkyl derivatives as new preclinical drug candidates for treating non‐alcoholic steatohepatitis” (Physiological Reports, 2021).
# Entries after “also recorded” stand apart in the source; their conditions may differ.
# Tested on: male CD/Crl:CD(SD) rats
# Experiment: Acute toxicity study, single peroral application, 14‐day observation
# Type: in vivo
# Conditions: for Ataxia / Chromodacryorrhea / Dyspnoea / Inhibition of body weight gain / Mean body weight gain, After 7 d / Mean body weight, After 7 d / Mortality within 6 h / Mortality within 24 h / Necropsy findings / Piloerection / Ptosis / Reduced motility / Reduced muscle tone / Mean body weight gain, End / Mean body weight, End / Mean body weight, Start / Mortality within 7 d / Mortality within 14 d: p.o., males, n = 5; for Mean body weight gain, End / Mean body weight, End: 14‐day observation; for Mean body weight, Start: before administration; for Premature deaths in the acute toxicity study: rat, in vivo
# Protocol: In total, 90 male CD®/Crl:CD(SD) rats from Charles River Laboratories, Deutschland GmbH, were used after randomization. Five rats were selected for each concentration of the corresponding experimental substance. […] In addition, a control group was formed with five rats receiving only the HPMC gel.
# Feeding was stopped approximately 16 h before the start of test substance application, whereas tap water continued to be available ad libitum. Granulated structural wood was used as bedding material in the cages; the material was changed and the cages were cleaned twice a week. […] The rooms were illuminated (approximately 150 lux from a ceiling height of approximately 1.50 m) and darkened for 12 h in turns.
# Each animal was kept under observation, so that any behavior deviating from the norm could be systematically recorded. Observations were made before the peroral application of the respective active substance, immediately after, and 5, 15, 30, and 60 min and 3, 6, and 24 h after the start of application. […] We focused on the changes in the skin and fur, the eyes and mucous membranes, respiration, circulation, the autonomous and central nervous systems, somatomotor activity, and behavior patterns. They were also observed for possible tremors, convulsions, salivation, diarrhea, lethargy, sleep, and coma. Mortality checks were performed at least once a day to minimize the loss of animals during the study. The time of death was recorded as accurately as possible. Individual body weights were recorded before the administration of experimental substances and, subsequently, at weekly intervals, until the end of the study and at death. Weight changes were calculated when survival exceeded 1 day.
# At the end of the experiments, all surviving animals were sacrificed, dissected, and examined macroscopically. All notable pathological changes were recorded. A microscopic examination of all organs showing obvious lesions was performed on animals that survived for 24 h or longer. Autopsy and macroscopic inspection of prematurely deceased animals were performed as soon as possible after death.
smiles,measurement,setting,value
"OCCCCCCCCCCCCn1ccnc1 [I‐ol, 12‐imidazolyl‐1‐dodecanol]",Ataxia,10 mg/kg b.w.,None
same,Chromodacryorrhea,10 mg/kg b.w.,None
same,Dyspnoea,10 mg/kg b.w.,None
same,Inhibition of body weight gain,10 mg/kg b.w.,None
same,"Mean body weight gain, After 7 d",10 mg/kg b.w.,+17.0%
same,"Mean body weight, After 7 d",10 mg/kg b.w.,259.2 g
same,Mortality within 6 h,10 mg/kg b.w.,0
same,Mortality within 24 h,10 mg/kg b.w.,0
same,Necropsy findings,10 mg/kg b.w.,None
same,Piloerection,10 mg/kg b.w.,None
same,Ptosis,10 mg/kg b.w.,None
same,Reduced motility,10 mg/kg b.w.,None
same,Reduced muscle tone,10 mg/kg b.w.,None
same,"Mean body weight gain, End",10 mg/kg b.w.,+30.0%
same,"Mean body weight, End",10 mg/kg b.w.,288.0 g
same,"Mean body weight, Start",10 mg/kg b.w.,221.6 g
same,Mortality within 7 d,10 mg/kg bw,0
same,Mortality within 14 d,10 mg/kg bw,0
same,Ataxia,50 mg/kg b.w.,None
same,Chromodacryorrhea,50 mg/kg b.w.,None
same,Dyspnoea,50 mg/kg b.w.,None
same,Inhibition of body weight gain,50 mg/kg b.w.,None
same,"Mean body weight gain, After 7 d",50 mg/kg b.w.,+22.2%
same,"Mean body weight, After 7 d",50 mg/kg b.w.,278.4 g
same,Mortality within 6 h,50 mg/kg b.w.,0
same,Mortality within 24 h,50 mg/kg b.w.,0
same,Necropsy findings,50 mg/kg b.w.,None
same,Piloerection,50 mg/kg b.w.,None
same,Ptosis,50 mg/kg b.w.,None
same,Reduced motility,50 mg/kg b.w.,None
same,Reduced muscle tone,50 mg/kg b.w.,None
same,"Mean body weight gain, End",50 mg/kg b.w.,+36.3%
same,"Mean body weight, End",50 mg/kg b.w.,310.4 g
same,"Mean body weight, Start",50 mg/kg b.w.,227.8 g
same,Mortality within 7 d,50 mg/kg bw,0
same,Mortality within 14 d,50 mg/kg bw,0
same,Ataxia,100 mg/kg b.w.,None
same,Chromodacryorrhea,100 mg/kg b.w.,None
same,Dyspnoea,100 mg/kg b.w.,None
same,Inhibition of body weight gain,100 mg/kg b.w.,None
same,"Mean body weight gain, After 7 d",100 mg/kg b.w.,+18.5%
same,"Mean body weight, After 7 d",100 mg/kg b.w.,272.6 g
same,Mortality within 6 h,100 mg/kg b.w.,0
same,Mortality within 24 h,100 mg/kg b.w.,0
same,Necropsy findings,100 mg/kg b.w.,None
same,Piloerection,100 mg/kg b.w.,None
same,Ptosis,100 mg/kg b.w.,None
same,Reduced motility,100 mg/kg b.w.,None
same,Reduced muscle tone,100 mg/kg b.w.,None
same,"Mean body weight gain, End",100 mg/kg b.w.,+33.0%
same,"Mean body weight, End",100 mg/kg b.w.,305.8 g
same,"Mean body weight, Start",100 mg/kg b.w.,230.0 g
same,Mortality within 7 d,100 mg/kg bw,0
same,Mortality within 14 d,100 mg/kg bw,0
same,Ataxia,250 mg/kg b.w.,None
same,Chromodacryorrhea,250 mg/kg b.w.,None
same,Dyspnoea,250 mg/kg b.w.,None
same,Inhibition of body weight gain,250 mg/kg b.w.,None
same,"Mean body weight gain, After 7 d",250 mg/kg b.w.,+19.6%
same,"Mean body weight, After 7 d",250 mg/kg b.w.,266.8 g
same,Mortality within 6 h,250 mg/kg b.w.,0
same,Mortality within 24 h,250 mg/kg b.w.,0
same,Necropsy findings,250 mg/kg b.w.,None
same,Piloerection,250 mg/kg b.w.,None
same,Ptosis,250 mg/kg b.w.,None
same,Reduced motility,250 mg/kg b.w.,None
same,Reduced muscle tone,250 mg/kg b.w.,None
same,"Mean body weight gain, End",250 mg/kg b.w.,+34.2%
same,"Mean body weight, End",250 mg/kg b.w.,299.2 g
same,"Mean body weight, Start",250 mg/kg b.w.,223.0 g
same,Toxic signs,250 mg/kg bw,None
same,Mortality within 7 d,250 mg/kg bw,0
same,Mortality within 14 d,250 mg/kg bw,0
same,Ataxia,500 mg/kg b.w.,None
same,Chromodacryorrhea,500 mg/kg b.w.,None +
same,Dyspnoea,500 mg/kg b.w.,None
same,Inhibition of body weight gain,500 mg/kg b.w.,None
same,"Mean body weight gain, After 7 d",500 mg/kg b.w.,+29.0%
same,"Mean body weight, After 7 d",500 mg/kg b.w.,294.2 g
same,Mortality within 6 h,500 mg/kg b.w.,0
same,Mortality within 24 h,500 mg/kg b.w.,0
same,Necropsy findings,500 mg/kg b.w.,None
same,Ptosis,500 mg/kg b.w.,None
same,Reduced motility,500 mg/kg b.w.,None
same,Reduced muscle tone,500 mg/kg b.w.,None
same,"Mean body weight gain, End",500 mg/kg b.w.,+46.6%
same,"Mean body weight, End",500 mg/kg b.w.,334.2 g
same,"Mean body weight, Start",500 mg/kg b.w.,228.0 g
same,Toxic signs,500 mg/kg bw,None
same,Mortality within 7 d,500 mg/kg bw,0
same,Mortality within 14 d,500 mg/kg bw,0
same,Chromodacryorrhea,1000 mg/kg b.w.,None
same,Inhibition of body weight gain,1000 mg/kg b.w.,None
same,"Mean body weight gain, After 7 d",1000 mg/kg b.w.,+22.4%
same,"Mean body weight, After 7 d",1000 mg/kg b.w.,271.2 g
same,Mortality within 6 h,1000 mg/kg b.w.,0
same,Mortality within 24 h,1000 mg/kg b.w.,0
same,Necropsy findings,1000 mg/kg b.w.,None
same,Piloerection,1000 mg/kg b.w.,None
same,Ptosis,1000 mg/kg b.w.,None
same,"Mean body weight gain, End",1000 mg/kg b.w.,+36.6%
same,"Mean body weight, End",1000 mg/kg b.w.,302.6 g
same,"Mean body weight, Start",1000 mg/kg b.w.,221.6 g
same,Toxic signs,1000 mg/kg bw,"reduced motility was observed, with reduced muscle tone, ataxia, and dyspnea; also recorded: Reduced motility and muscle tone, ataxia, dyspnoea"
same,Mortality within 7 d,1000 mg/kg bw,0
same,Mortality within 14 d,1000 mg/kg bw,0
same,Macroscopic necropsy findings,all doses,None
same,Premature deaths in the acute toxicity study,"male, CD/Crl:CD(SD), 14 days",None of the 30 rats died
same,Premature deaths in the acute toxicity study,,did not lead to any death
same,Dose up to which no acute toxicity was shown,"rats, single p.o. dose",1000 mg/kg b.w.
same,Lowest lethal dose,"rats, single p.o. dose",>1000 mg/kg bw
same,No Observed Adverse Effect Level,"rats, single p.o. dose",500 mg/kg bw
same,LD50(14 d),"rats, single p.o. dose, 14 days",>1000 mg/kg bw
